Measured values reported in US20100048411A1, “SUBSTRATE FOR THE GROWTH OF CULTURED CELLS IN THREE DIMENSIONS” (REINNERVATE LIMITED, priority 2006, published 2010).

Key:
Assay type in all cases: cell-based, human
HepG2 cells [1] = assay: MTT viable cell number of HepG2 cells challenged with methotrexate on 2-D and 3-D substrates
Experimental: (§1) The human hepatic carcinoma cell line, HepG2, was obtained from the American Type Culture Collection (ATCC). HepG2 cells were cultured at 37° C. in 5% CO2 in growth medium (Dulbecco's modified Eagle medium (D-MEM, Gibco/BRL) supplemented with 10% (v/v) fetal calf serum (FBS, Gibco/BRL), 100 μg.mL^−1 penicillin and 10 μg.mL^−1 streptomycin (Gibco/BRL)). Cells were passaged every 5-7 days. Confluent cultures of cells were washed with PBS, detached using trypsin/EDTA solution and cell number determined using a hemocytometer. Suspensions of HepG2 cells were then seeded at equal densities either directly into wells of a standard 6-welled plate (Nunc) or into modified well-inserts mounted with the polymer and located in wells of a 6-well plate. Cultures were maintained in growth medium which was changed every 3-4 days or as required.
The number of viable cells was determined using a commercially available calorimetric assay (Promega) based on Mosmann's original method for measuring cell activity involving the conversion of a tetrazolium salt into a blue formazan product detectable by a spectrophotometer (570 nm). The assay was performed according to the manufacturer's instructions on HepG2 cells cultured on 2-D and 3-D substrates for various periods under alternative growth conditions.
(§2) Cells were seeded on 2-D and 3-D surfaces in triplicate and left to settle and adhere for 24 hours. […] Cells were subsequently incubated for 1, 3, 7 or 10 days, after which cultures were sampled and assayed for cell number/viability and levels of albumin and transglutaminase were determined.

HepG2 cells [2] = assay: albumin secretion of HepG2 cells challenged with methotrexate
Experimental: as §1, §2
The production of albumin is often used as an indicator of hepatocyte metabolic activity. Levels of albumin were determined using a commercially available kit (Bioassay systems) based on an established method that utilizes bromocresol green which forms a coloured complex specifically with albumin that is detectable at 620 nm. Known quantities of human albumin were used to establish the standard curve. Specific levels of albumin secretion were normalized to total protein levels (as determined by a standard Bradford assay).

HepG2 cells [3] = assay: transglutaminase assay of HepG2 cells challenged with methotrexate
Experimental: as §1, §2
The leakage of this enzyme is often used as a marker for in vitro toxicity testing and its presence indicates damage to cell membranes. […] The level of transglutaminase was analysed by means of a quantitative enzymatic assay (Sigma, UK) as previously described.

HepG2 cells [4] = assay: SEM and TEM morphology of HepG2 cells challenged with methotrexate
Experimental: Cells were seeded on 2-D and 3-D surfaces in triplicate and left to settle and adhere for 24 hours. The medium was then changed and replaced with medium containing different concentrations of MTX (no MTX (vehicle alone, control), 8 μM, 31 μM, and 125 μM). Cells were subsequently incubated for 1, 3, 7 or 10 days, after which cultures were sampled and assayed for cell number/viability and levels of albumin and transglutaminase were determined.
In preparation for SEM, cells grown on 2-D or 3-D substrates were fixed in 2% paraformaldehyde and 2.5% glutaraldehyde in Sorenson's phosphate buffer for 1 hour at room temperature. Samples were then rinsed in 0.1M phosphate buffer and immersed in 1% OsO4 (aq.) solution for 1 hour, then dehydrated in 50%, 70%, 95% and 100% ethanol for 5 minutes, four times for each respective ethanol change. Samples of fixed 2-D and 3-D cultures were then cut into smaller pieces (approximately 25 mm^2), mounted on specimen holders and dried from CO2 at 38° C. at 1200 psi. The samples were then sputter coated with a 7 nm layer of chromium and examined using a Hitachi S5200 SEM.
For TEM analysis, cells grown on 3-D substrates were fixed and treated as described above for SEM. However, subsequent to dehydration and being cut into small pieces, samples were embedded in resin (Araldite CY212, Agar Scientific) for 1 hour at 37° C. and then placed into pyramidal moulds at 60° C. overnight. For the preparation of cells grown on 2-D surfaces, cultures were fixed in 2% paraformaldehyde and 2.5% glutaraldehyde in Sorenson's phosphate buffer for 1 hour at room temperature. Cells were then scrapped from tissue culture plastic and pelleted at 15,000 rpm for 10 min. Pelleted cells were subsequently rinsed in 0.1M phosphate buffer and immersed in 1% OsO4 (aq.) solution for 1 hour, then dehydrated in 50%, 70%, 95% and 100% ethanol for 5 min, for times for each respective ethanol change. The dehydrated cell pellets were then soaked in resin (Araldite CY212) for 60 min at 37° C. […]

albumin secretion (metabolic activity) (HepG2 cells [2]; cells cultured on scaffolds (3-D), 15.6 μM MTX): did begin to reduce albumin secretion | albumin secretion (metabolic activity) (HepG2 cells [2]; cells grown in 2-D, 8 μM MTX): sensitive
SMILES: CN(Cc1cnc2nc(N)nc(N)c2n1)c1ccc(C(=O)N[C@@H](CCC(=O)O)C(=O)O)cc1 [MTX, methotrexate]
cell viability (MTT absorbance) (HepG2 cells [1]; 3-D cultures, 62 μM MTX, compared to control values): significant decrease in absorbance levels | cell viability (MTT absorbance) (HepG2 cells [1]; HepG2 monolayers (2-D), 15 μM MTX, after 24 hours): gradual increase of absorbance | cell viability (MTT absorbance) (HepG2 cells [1]; cells on 2-D surfaces, increasing MTX concentrations): visibly reduced | cell viability (MTT absorbance) (HepG2 cells [1]; monolayers (2-D), 7 days, 125 μM MTX): sharp decrease in absorbance levels | albumin secretion (metabolic activity) (HepG2 cells [2]; cells grown in 3-D, 8 μM MTX): did not significantly influence albumin secretion | transglutaminase levels (HepG2 cells [3]; 2-D cultures, 31 μM MTX and above, versus 3-D culture): significantly higher levels of transglutaminase | transglutaminase levels (HepG2 cells [3]; 3-D cultures, increasing concentration of MTX): did not cause a significant increase in transglutaminase levels | ultra-structure (TEM) (HepG2 cells [4]; 2-D cultures, 8 μM MTX): areas of cellular necrosis were also evident | ultra-structure (TEM) (HepG2 cells [4]; 2-D cultures, high levels of MTX): most cells became necrotic | ultra-structure (TEM) (HepG2 cells [4]; 3-D culture, 125 μM MTX): the nuclear membrane had an irregular morphology
